Measured values reported in US20020159980A1, “Benomyl tolerant fusarium lateritium and uses thereof” (priority 2001, published 2002).

Columns and labels:
E. lata = assay: Grapevine bioassays in the presence of benomyl: E. lata colonization; assay type: cell-based, Eutypa lata; details: 26° C., 10 days; for E. lata colonization: treatment E. lata alone
Experimental: Bioassays were also completed to evaluate the tolerance of the BR F. lateritium strain and E. lata to benomyl when applied to grapevine segments. Benomyl concentrations tested included 0, 10, 100 and 1000 μg/ml at 50 μl aliquots per segment. Bioassays were inoculated with 20 μl aliquots of broth from 4 to 5 day old shake flask cultures of BR F. lateritium and E. lata. The F. lateritium shake flask cultures yielded approximately 4.5×10^5 cells/ml. Segments were inoculated first with benomyl and then with E. lata and BR F. lateritium. All inoculations were completed within one hour in a laminar flow hood. These bioassays were incubated at 26° C. for 10 days.
After incubation, segments were removed from the water agar, split in half and surface disinfected for ½ hour in a 2.5% sodium hypochlorite solution. The split segments were plated on PDA and monitored for E. lata presence after 5 days. All bioassays were performed in triplicate. Positive and negative controls were performed for each bioassay. Mean percent infection levels and standard errors about the mean were calculated for each treatment.

[1] = system: F. lateritium and E. armeniacae; details: reported by Carter et al.; cited from earlier work

CCCCNC(=O)n1c(NC(=O)OC)nc2ccccc21 [benomyl, 1-(butylcarbomyl)-2-benzimidazole carbamate]
benomyl concentration applied to the segments at which E. lata did not colonize (E. lata; grapevine segments): exceeded 100 μg/ml | E. lata colonization (E. lata; benomyl 10 μg/ml): 100% | E. lata colonization (E. lata; benomyl 100 μg/ml): 90% | E. lata colonization (E. lata; benomyl 1000 μg/ml): 0% | differential sensitivities of F. lateritium and E. armeniacae to benomyl [1]: approximately 10 fold
